# Laboratory results as given in patent US20250100962A1 (CITY OF HOPE, priority 2023, published 2025).
# Entries after “also recorded” stand apart in the source; their conditions may differ.
# Assays:
# primary preadipocytes = experiment: Adipogenic differentiation of primary preadipocytes; assay type: cell-based, mice; conditions: for mature adipocyte formation: 0.5 and 1 μM
# Description: Primary preadipocyte isolation and adipogenic induction. The stromal vascular fraction containing preadipocytes were isolated from subcutaneous fat pads, as described (Chatterjee, Nam, Guo et al., 2013). Briefly, fat pads were cut into pieces and digested using 0.1% collagenase Type 1 with 0.8% BSA at 37° C. in a horizontal shaker for 60 minutes, passed through Nylon mesh and centrifuged to collect the pellet containing the stromal vascular fraction with preadipocytes. Preadipocytes were cultured in F12/DMEM supplemented with bFGF (2.5 ng/ml), expanded for two passages and subjected to differentiation in 6-well plates at 90% confluency. Adipogenic differentiation was induced for 2 days in medium containing 10% FBS, 1.6 μM insulin, 1 μM dexamethasone, 0.5 mM IBMX, 0.5 μM rosiglitazone before switching to maintenance medium for 4 days with insulin only. Nobiletin at indicated concentrations were added for the entire differentiation time course. Oil-red-O and Bodipy staining. These stainings for neutral lipids during adipogenic differentiation were performed as previously described (Nam et al., 2015). Briefly, for oil-red-O staining, cells were fixed using 10% formalin and incubated using 0.5% oil-red-O solution for 1 hour. Bodipy 493/503 was used at 1 mg/L together with DAPI for 15 minutes, following 4% paraformaldehyde fixation and permeabilization with 0.2% triton-X100. Immunoblot analysis. Total protein was extracted using lysis buffer containing 3% NaCl, 5% Tris-HCl, 10% Glycerol, 0.5% Triton X-10 in MilliQ water with protease inhibitor cocktail. 20-40 μg of total protein was resolved on 10% SDS-PAGE gels followed by immunoblotting on PVDF membranes (Bio-rad). Membranes were developed by chemiluminescence (SuperSignal West Pico, Pierce Biotechnology) and signals were obtained via a chemiluminescence imager (Amersham Imager 680, GE Biosciences).
# [1] = tested on: U2OS cells containing Per2::dLuc luciferase reporter; experiment: Real-time bioluminescence monitoring of Per2::Luciferase reporter in U2OS cells (LumiCycle); assay type: cell-based; conditions: for Modulatory Property: clock-modulatory classification
# Description: U2OS cells or mouse fibroblasts (MF) containing a Per2-luciferase reporter (Yoo et al., 2004) were seeded at 4×10^5 concentration on 24 well plates and treated at 90% confluence with 1 ml 1×Fresh explant medium with desired compounds and controls. The seeding density was decided after trying several densities and choosing the one that after 24 h lead to 90% confluence. 1× Fresh explant medium was produced using 50% 2×DMEM buffer stock [DMEM powder (Gibco—Thermo Fisher CN: 12800-017), Sterile MilliQ water, pH7 1 M HEPES (Gibco—Thermo Fisher CN:15630080) and 7.5% Sodium Bicarbonate (Gibco—Thermo Fisher CN: 25080094)], 10% FBS (Cytiva), 37.9% Sterile MiliQ water, 1% PSG 100× (Gibco—Thermo Fisher CN: 10378016), 0.1% Sodium Hydroxixe (NaOH) 100 mM (Fishel Chemical CN: S318-500), 1% XenoLight D-Luciferin—Monopotassium Salt Bioluminiscent Substrate 100 mM (PerkinElmer CN: 122799). Treated cells were introduced to the LumiCycle96 (ActiMetrics) were they were cultured and Per2-luciferafe reporter luminescence was measured for 6 days. Raw and subtracted results for 5 days were exported and data was calculated as luminescence counts per second.
# C3H10T1/2 cells = experiment: Clock and Wnt gene/protein expression in C3H10T1/2 cells; assay type: cell-based; conditions: for β-catenin protein level during adipogenic differentiation: 1 μM, before and after adipogenic induction; for mRNA levels of Wnt ligands and receptors / clock gene expression: 10T1/2 cells; for mRNA levels of Wnt ligands and receptors: 6 hours; for clock gene expression: RT-qPCR
# Description: Immunoblot analysis. Total protein was extracted using lysis buffer containing 3% NaCl, 5% Tris-HCl, 10% Glycerol, 0.5% Triton X-10 in MilliQ water with protease inhibitor cocktail. 20-40 μg of total protein was resolved on 10% SDS-PAGE gels followed by immunoblotting on PVDF membranes (Bio-rad). Membranes were developed by chemiluminescence (SuperSignal West Pico, Pierce Biotechnology) and signals were obtained via a chemiluminescence imager (Amersham Imager 680, GE Biosciences).
# RNA extraction and RT-qPCR analysis. PureLink RNA Mini Kit (Invitrogen) were used to isolate total RNA from cells. cDNA was generated using Revert Aid RT kit (ThermoFisher) and quantitative PCR was performed using SYBR Green Master Mix (Thermno Fisher) in triplicates on ViiA 7 Real-Time PCR System (Applied Biosystems). Relative expression levels were determined using the comparative Ct method with normalization to 361B4 as internal control.
# C57/BL6 wild-type mice = experiment: Cardiotoxin-induced acute muscle injury, intramuscular injection into TA muscle; assay type: in vivo, mouse; conditions: for eMyHC staining (new myofiber formation): after cardiotoxin injury, local intramuscular injection
# Text: FIGS. 42A-42B. CHX and CM002 promote nascent myofiber formation upon acute muscle injury. To determine whether the effect of CHX and CM002 on promoting myogenesis leads to improved muscle regeneration in vivo, we tested local intramuscular injection into TA muscle following acute injury by cardiotoxin in normal C57/BL6 wild-type mice. […] Collectively, these findings indicate that these clock-activating molecules are capable of inducing myogenic response via local administration leading to sustained new myofiber formation following acute muscle injury.
# Wnt signaling activity = experiment: TOPFlash luciferase reporter assay (Example 3); assay type: cell-based; conditions: for TOPFlash reporter activity, Wnt-stimulated: Wnt3a media
# Description: TOPFlash luciferase reporter assay. M50 Super 8×TOPFlash luciferase reporter containing Wnt-responsive TCF bindings sites was a gift from Randall Moon (Veeman, Slusarski, Kaykas et al., 2003) obtained from Addgene (Addgene plasmid #12456). Cells were seeded and grown overnight, and cell transfection was performed at 90% confluency. 24 hours following transfection, cells were treated using 10% Wnt3a conditioned media obtained from L Wnt-3A cell line (ATCC CRL-2647) to induce luciferase activity. Luciferase activity was assayed using Dual-Luciferase Reporter Assay Kit (Promega) in 96-well black plates. TOPFlash luciferase reporter luminescence was measured on microplate reader (TECAN infinite M200pro) and normalized to control FOPFlash activity, as previously described (Guo et al., 2012). The mean and standard deviation values were calculated for each well and graphed.
# [2] = U2OS Per2 luciferase reporter, recording 5-6 days, vs DMSO
SMILES,mature adipocyte formation (primary preadipocytes; six days of differentiation),"circadian period length [1, 2]",Modulatory Property [1],β-catenin protein level during adipogenic differentiation (C3H10T1/2 cells),mRNA levels of Wnt ligands and receptors (C3H10T1/2 cells),clock gene expression (C3H10T1/2 cells),Pax7 protein (C57/BL6 wild-type mice; CTX-injected TA muscle),eMyHC staining (new myofiber formation) (C57/BL6 wild-type mice),"TOPFlash reporter activity, basal condition (Wnt signaling activity)","TOPFlash reporter activity, Wnt-stimulated (Wnt signaling activity)",also measured
CCCCCC/C=N/C(=N)NC(=N)Nc1ccc(Cl)cc1 [CM002],strongly inhibited their differentiation; also recorded: dose-dependent reductions by CM002 at 0.5 and 1 μM concentration,shortening of period length starting at 0.2 μM that was maintained at 2 μM; also recorded: dose-dependent effect on inducing clock period length shortening,strong clock activator,partially reverse the decline of β-catenin level at the differentiated state,significant induction of Wnt ligands including Wnt1 and Wnt10a transcripts,"induction of core clock transcription activators, CLOCK and Bmal1, together with up-regulation of its direct transcriptional target within the molecular clock loop, Nr1d1",robustly increased,substantial amount of eMyHC staining indicative of sustained nascent myofiber regeneration,sufficient to stimulate TOPFlash reporter activity to a similar degree as CHX,at lower concentrations at 0.1 and 0.2 μM were sufficient to induce TOPFlash reporter activity comparable to that of CHX at 0.5 μM,"reduction of adipocyte formation in Bmal1-deficient (BMKO) preadipocytes (primary preadipocytes; six days of differentiation): severely blunted; adipocyte formation, compound given after initial two days of adipogenic induction (primary preadipocytes; vs presence throughout differentiation): still retained its efficacy of blocking adipocyte formation largely to the same extent; LumiCycle Result: Clock activity, Amplitude ([1]; Table 1, U2OS Per2::dLuc): Amplitude: Increased; LumiCycle Result: Clock activity, Period ([1]; Table 1, U2OS Per2::dLuc): Period: Shortening; LumiCycle Result: Clock activity (overall) ([1]; U2OS Per2::dLuc, CHX analogs screened): strongest effect on activating circadian clock function; MyoD, Myf5 and Myogenin levels (C57/BL6 wild-type mice; CTX-injected TA muscle): elevated levels of MyoD, Myf5 and Myogenein"
"[H]/N=C(\N/C(=N/[H])NCCCCCCNC(=N)NC(=N)Nc1ccc(Cl)cc1)Nc1ccc(Cl)cc1 [CHX, chlorhexidine]","dose-dependent, marked effect on suppressing mature adipocyte formation",dose-dependent reduction of period length from 0.2 to 1 μM,clock activator,sufficient to re-activate the lost b-catenin protein level during adipogenic differentiation,"induced the mRNA levels of Wnt1, Wnt10a, Fzd2, Fzd5",inductions of Pers and Crys,robustly increased,substantial amount of eMyHC staining indicative of sustained nascent myofiber regeneration,could induce Wnt signaling activity,could induce Wnt signaling activity,"FASN, terminal differentiation marker (primary preadipocytes; day 6 of differentiation): markedly attenuated the terminal differentiation marker of adipocytes, FASN; adipogenic factor induction (primary preadipocytes; day 6 of differentiation): only resulted in a tendency toward suppressing adipogenic factor induction; toxicity in reporter cells ([1]; CHX at 5 and 10 μM): significant toxicity with reduced amplitude; effective concentration range, dose response of bioluminescence activity ([1]; Per2-Luc U2OS cells): 0.2 to 2 µM; clock cycling amplitude [1, 2]: at a low concentration of 0.2 μM induced clock amplitude, but not at any higher concentrations examined"
